Results on three molecules are retold here after patent publication US20050014817A1, “Fluorothiophene derivatives, process for preparing them and pharmaceutical compositions containing them” (Pfizer Inc, priority 2003, published 2005).

A word on the IC50: it is the concentration at which inhibition is half-maximal.

One assay deals with MMP-13 (Homo sapiens, UniProt P45452). In words: MMP-12 test adapted to MMP-13. It is filed as biochemical. As for the experimental part:
(§1) The inhibitory activity of the compounds of formula (I) on metalloprotease-12 is evaluated by testing the capacity of the compounds of the invention to inhibit the proteolysis of a peptide that is an MMP-12 substrate.
(§2) The reaction starts with the sequential addition of 41 μl of FP-1 substrate (final concentration of 10 μM) to a buffer solution of 50 mM of Tris-HCl and 10 mM of CaCl2, and containing 5 mM of hydroxamic acid and 5 μl of the enzyme diluted in a 0.005% Brij-35 buffer solution. The microplates are incubated for 20 minutes at room temperature.
(§3) The compounds of the invention are tested at concentrations ranging from 0.3 to 30 μM.
(§4) The measurement of the amount of proteolysis of the peptide substrate is monitored by means of a measurement of absorbance at 405 nm using a microplate spectrophotometer, at room temperature. The IC50 values are calculated from curves in which the percentage of the catalytic activity relative to the control is represented on the x-axis and the inhibitor concentration is represented on the y-axis.
The test described above for the inhibition of MMP-12 is adapted and used to determine the capacity of the compounds of formula (I) to inhibit the metalloproteases MMP-1, MMP-2, MMP-3, MMP-7, MMP-9, MMP-13 and MMP-14.

The next assay has as its target MMP-12 (Homo sapiens, UniProt P39900). As to the kind of experiment: In vitro inhibition of MMP-12 proteolysis of fluorigenic peptide FP-1. The assay is classed as biochemical. The conditions noted are these: FP-1 substrate 10 μM, 20 minutes at room temperature. As for the experimental part:
In Vitro Evaluation of the Inhibitory Activity of the Compounds of the Invention on MMP-12:
as §1
The substrate peptide used (fluorigenic peptide-1: FP-1) in the test has the following sequence: Mca-Pro-Leu-Gly-Leu-Dap(Dnp)-Ala-Arg-NH2.
The inhibitory activity of a compound of formula (I) is expressed as the IC50 value, which represents the concentration of inhibitor for which a 50% inhibition of the metalloprotease is observed.
as §2, §3, §4

SMILES strings stand for the structures.

MMP-12, sequence (P39900 106-470): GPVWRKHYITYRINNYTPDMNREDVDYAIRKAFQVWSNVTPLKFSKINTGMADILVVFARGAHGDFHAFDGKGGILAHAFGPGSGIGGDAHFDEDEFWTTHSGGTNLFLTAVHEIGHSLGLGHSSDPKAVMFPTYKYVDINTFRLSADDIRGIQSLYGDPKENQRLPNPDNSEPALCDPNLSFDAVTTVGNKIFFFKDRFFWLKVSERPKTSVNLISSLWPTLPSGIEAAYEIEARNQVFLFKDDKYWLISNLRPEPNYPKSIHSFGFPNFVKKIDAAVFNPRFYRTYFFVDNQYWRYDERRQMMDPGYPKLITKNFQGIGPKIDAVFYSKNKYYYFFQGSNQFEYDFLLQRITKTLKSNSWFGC

As for `O=C(NC[C@H]1CC[C@H](C(=O)O)CC1)c1cc(-c2ccc(OC(F)(F)F)cc2)c(F)s1` [Example 1, 4-({[5-Fluoro-4-(4-trifluoromethoxyphenyl)thien-2-yl]carboxamido}-methyl)cyclohexanecarboxylic Acid], the IC50 stood at 2.8 µM against MMP-13 and 0.14 µM against MMP-12.

For the molecule `CC(=O)c1ccc(-c2ccc(-c3cc(C(=O)NC[C@H]4CC[C@H](C(=O)O)CC4)sc3F)cc2)cc1` [Example 2, trans4-({[5-Fluoro-4-(4-[4-acetylphenyl]phenyl)thien-2-yl]carboxamido}methyl)cyclohexanecarboxylic Acid], the IC50 was 0.038 µM against MMP-13 and 0.007 µM at MMP-12.

In the case of `CC(=O)c1ccc(-c2ccc(-c3cc(C(=O)N[C@H](CC(=O)O)c4ccccc4)sc3F)cc2)cc1` [Example 3, 3-(R)-Phenyl-3-({5-fluoro-4-[4-(4-acetylphenyl)phenyl]thien-2 yl}carboxamido)-propanoic Acid], the IC50 on MMP-13 was 0.085 µM; at MMP-12, 0.024 µM.
